Measured values reported in PubChem BioAssay (NCI).
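These data come from cells grown in 96-well plates and exposed to compound for 48 hours at five concentrations. At the GI50, growth is halved. Definition used: TGI = concentration required for complete inhibition of growth.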

How the values were obtained:
Test in all cases: DTP human tumour cell line panel, 48 h; in the data active means GI50 below about 0.43 µM; inactive means the rest
786-0 renal = test system: 786-0 renal
A498 renal = test system: A498 renal
A549 NSCLC = test system: A549 NSCLC
ACHN renal = test system: ACHN renal
BT-549 breast = test system: BT-549 breast
CAKI-1 renal = test system: CAKI-1 renal
CCRF-CEM leukemia = test system: CCRF-CEM leukemia
COLO 205 colon = test system: COLO 205 colon
DU-145 prostate = test system: DU-145 prostate
EKVX NSCLC = test system: EKVX NSCLC
HCC-2998 colon = test system: HCC-2998 colon
HCT-116 colon = test system: HCT-116 colon
HCT-15 colon = test system: HCT-15 colon
HL-60(TB) leukemia = test system: HL-60(TB) leukemia
HOP-62 NSCLC = test system: HOP-62 NSCLC
HOP-92 NSCLC = test system: HOP-92 NSCLC
HS 578T breast = test system: HS 578T breast
HT29 colon = test system: HT29 colon
IGROV1 ovarian = test system: IGROV1 ovarian
K-562 leukemia = test system: K-562 leukemia
KM12 colon = test system: KM12 colon
LOX IMVI melanoma = test system: LOX IMVI melanoma
M14 melanoma = test system: M14 melanoma
MALME-3M melanoma = test system: MALME-3M melanoma
MCF7 breast = test system: MCF7 breast
MDA-MB-231 breast = test system: MDA-MB-231 breast
MDA-MB-435 = test system: MDA-MB-435
MOLT-4 leukemia = test system: MOLT-4 leukemia
NCI-H226 lung = test system: NCI-H226 lung
NCI-H23 lung = test system: NCI-H23 lung
NCI-H460 lung = test system: NCI-H460 lung
NCI-H522 lung = test system: NCI-H522 lung
NCI/ADR-RES ovarian = test system: NCI/ADR-RES ovarian
OVCAR-3 ovarian = test system: OVCAR-3 ovarian
OVCAR-4 ovarian = test system: OVCAR-4 ovarian
OVCAR-5 ovarian = test system: OVCAR-5 ovarian
OVCAR-8 ovarian = test system: OVCAR-8 ovarian
PC-3 prostate = test system: PC-3 prostate
RPMI-8226 leukemia = test system: RPMI-8226 leukemia
RXF 393 renal = test system: RXF 393 renal
SF-268 CNS = test system: SF-268 CNS
SF-295 CNS = test system: SF-295 CNS
SF-539 CNS = test system: SF-539 CNS
SK-MEL-2 melanoma = test system: SK-MEL-2 melanoma
SK-MEL-28 melanoma = test system: SK-MEL-28 melanoma
SK-MEL-5 melanoma = test system: SK-MEL-5 melanoma
SK-OV-3 ovarian = test system: SK-OV-3 ovarian
SN12C renal = test system: SN12C renal
SNB-19 CNS = test system: SNB-19 CNS
SNB-75 CNS = test system: SNB-75 CNS
SR leukemia = test system: SR leukemia
SW-620 colon = test system: SW-620 colon
T-47D breast = test system: T-47D breast
TK-10 renal = test system: TK-10 renal
U251 CNS = test system: U251 CNS
UACC-257 melanoma = test system: UACC-257 melanoma
UACC-62 melanoma = test system: UACC-62 melanoma
UO-31 renal = test system: UO-31 renal

O=C(O)c1ccc(CN2CCC(CN[C@@H]3C[C@H]3c3ccccc3)CC2)cc1
> 100 µM: TGI (786-0 renal) | TGI (A498 renal) | TGI (A549 NSCLC) | TGI (ACHN renal) | TGI (BT-549 breast) | TGI (CAKI-1 renal) | TGI (CCRF-CEM leukemia) | TGI (COLO 205 colon) | TGI (DU-145 prostate) | TGI (EKVX NSCLC) | TGI (HCC-2998 colon) | TGI (HCT-116 colon) | TGI (HCT-15 colon) | TGI (HL-60(TB) leukemia) | TGI (HOP-62 NSCLC) | TGI (HOP-92 NSCLC) | TGI (HS 578T breast) | TGI (HT29 colon) | TGI (IGROV1 ovarian) | TGI (K-562 leukemia) | TGI (KM12 colon) | TGI (LOX IMVI melanoma) | TGI (M14 melanoma) | TGI (MALME-3M melanoma) | TGI (MCF7 breast) | TGI (MDA-MB-231 breast) | TGI (MDA-MB-435) | TGI (MOLT-4 leukemia) | TGI (NCI-H226 lung) | TGI (NCI-H23 lung) | TGI (NCI-H460 lung) | TGI (NCI-H522 lung) | TGI (NCI/ADR-RES ovarian) | TGI (OVCAR-3 ovarian) | TGI (OVCAR-4 ovarian) | TGI (OVCAR-5 ovarian) | TGI (OVCAR-8 ovarian) | TGI (PC-3 prostate) | TGI (RPMI-8226 leukemia) | TGI (RXF 393 renal) | TGI (SF-268 CNS) | TGI (SF-295 CNS) | TGI (SF-539 CNS) | TGI (SK-MEL-2 melanoma) | TGI (SK-MEL-28 melanoma) | TGI (SK-MEL-5 melanoma) | TGI (SK-OV-3 ovarian) | TGI (SN12C renal) | TGI (SNB-19 CNS) | TGI (SNB-75 CNS) | TGI (SR leukemia) | TGI (SW-620 colon) | TGI (T-47D breast) | TGI (TK-10 renal) | TGI (U251 CNS) | TGI (UACC-257 melanoma) | TGI (UACC-62 melanoma) | TGI (UO-31 renal)
inactive: GI50 (786-0 renal) > 100 µM | GI50 (A498 renal) > 100 µM | GI50 (A549 NSCLC) > 100 µM | GI50 (ACHN renal) > 100 µM | GI50 (BT-549 breast) > 100 µM | GI50 (CAKI-1 renal) > 100 µM | GI50 (CCRF-CEM leukemia) > 100 µM | GI50 (COLO 205 colon) > 100 µM | GI50 (DU-145 prostate) > 100 µM | GI50 (EKVX NSCLC) > 100 µM | GI50 (HCC-2998 colon) > 100 µM | GI50 (HCT-116 colon) > 100 µM | GI50 (HCT-15 colon) > 100 µM | GI50 (HL-60(TB) leukemia) > 100 µM | GI50 (HOP-62 NSCLC) > 100 µM | GI50 (HOP-92 NSCLC) > 100 µM | GI50 (HS 578T breast) > 100 µM | GI50 (HT29 colon) > 100 µM | GI50 (IGROV1 ovarian) > 100 µM | GI50 (K-562 leukemia) > 100 µM | GI50 (KM12 colon) > 100 µM | GI50 (LOX IMVI melanoma) > 100 µM | GI50 (M14 melanoma) > 100 µM | GI50 (MALME-3M melanoma) > 100 µM | GI50 (MCF7 breast) > 100 µM | GI50 (MDA-MB-231 breast) > 100 µM | GI50 (MDA-MB-435) > 100 µM | GI50 (MOLT-4 leukemia) > 100 µM | GI50 (NCI-H226 lung) > 100 µM | GI50 (NCI-H23 lung) > 100 µM | GI50 (NCI-H460 lung) > 100 µM | GI50 (NCI-H522 lung) > 100 µM | GI50 (NCI/ADR-RES ovarian) > 100 µM | GI50 (OVCAR-3 ovarian) > 100 µM | GI50 (OVCAR-4 ovarian) > 100 µM | GI50 (OVCAR-5 ovarian) > 100 µM | GI50 (OVCAR-8 ovarian) > 100 µM | GI50 (PC-3 prostate) > 100 µM | GI50 (RPMI-8226 leukemia) > 100 µM | GI50 (RXF 393 renal) > 100 µM | GI50 (SF-268 CNS) > 100 µM | GI50 (SF-295 CNS) > 100 µM | GI50 (SF-539 CNS) > 100 µM | GI50 (SK-MEL-2 melanoma) > 100 µM | GI50 (SK-MEL-28 melanoma) > 100 µM | GI50 (SK-MEL-5 melanoma) > 100 µM | GI50 (SK-OV-3 ovarian) > 100 µM | GI50 (SN12C renal) > 100 µM | GI50 (SNB-19 CNS) > 100 µM | GI50 (SNB-75 CNS) > 100 µM | GI50 (SR leukemia) > 100 µM | GI50 (SW-620 colon) > 100 µM | GI50 (T-47D breast) > 100 µM | GI50 (TK-10 renal) > 100 µM | GI50 (U251 CNS) > 100 µM | GI50 (UACC-257 melanoma) > 100 µM | GI50 (UACC-62 melanoma) > 100 µM | GI50 (UO-31 renal) > 100 µM
